Reference: ChEMBL document CHEMBL3044581, “Synthesis and fungicidal activities of silicon-containing derivatives of 2-aryl-3-(1H-1,2,4-triazol-1-yl)propanenitriles” (2001)

Assays:
[1] = test system: Rhizoctonia solani; assay: Antifungal activity against Rhizoctonia solani infected compound-pre-treated rice seedlings at 300 ppm incubated for 2 days prior to infection measured after 4 days relative to diclomezine; format: functional
[2] = test system: Podosphaera fuliginea; assay: Antifungal activity against Podosphaera fuliginea infected compound-pre-treated cucumber seedlings at 300 ppm incubated for 2 days prior to infection measured after 4 days relative to buthiobate; format: functional

SMILES	Activity_index [1]	Activity_index [2]
C[Si](C)(C)CC(C#N)(Cn1cncn1)c1ccccc1Cl (centres undefined)	2	0
C[Si](C)(C)CC(C#N)(Cn1cncn1)c1ccccc1 (centres undefined)	2	2
C[Si](C)(C)CC(C#N)(Cn1cncn1)c1ccc(F)cc1 (centres undefined)	2	0
C[Si](C)(C)CC(C#N)(Cn1cncn1)c1ccc(Cl)cc1 (centres undefined)	2	0
C[Si](C)(CC(C#N)(Cn1cncn1)c1ccc(Cl)cc1)c1ccccc1 (centres undefined)	0	2
C[Si](C)(CC(C#N)(Cn1cncn1)c1ccccc1)c1ccccc1 (centres undefined)	0	2
Cc1ccc(C(C#N)(Cn2cncn2)C[Si](C)(C)C)cc1 (centres undefined)	0	2
C[Si](C)(CC(C#N)(Cn1cncn1)c1cccc(Oc2ccccc2)c1)c1ccccc1 (centres undefined)	0	0
COc1ccc(C(C#N)(Cn2cncn2)C[Si](C)(C)C)cc1 (centres undefined)	2	2
C[Si](C)(C)CC(C#N)(Cn1cncn1)c1ccc(Cl)cc1Cl (centres undefined)	2	2
C[Si](C)(C)CC(C#N)(Cn1cncn1)c1ccc(Cl)c(Cl)c1 (centres undefined)	0	2
C[Si](C)(C)CC(C#N)(Cn1cncn1)c1cccc(Cl)c1 (centres undefined)	0	2
